These results are taken from ChEMBL document CHEMBL5715954, “Silencing c-Myc translation as a therapeutic strategy through targeting PI3Kδ and CK1ε in hematological malignancies” (Blood, 2017).

Molecules are shown by their SMILES.

Common to all, as to set-up: scale not given: the % may be the effect or the level left
Assay [1] concerns the target Calcium/calmodulin-dependent protein kinase type 1B (Homo sapiens) (UniProt Q6P2M8). The assay can be described thus: Inhibition of human CAMK1b assessed as enzyme activity at 1 uM using KKALRRQETVDAL as substrate preincubated for 20 mins followed by [gamma-33P]-ATP addition and measured after 120 mins by radiometric Hot-SpotSM Kinase assay relative to control.
The target in assay [2] is Calcium/calmodulin-dependent protein kinase type II subunit beta (Homo sapiens) (UniProt Q13554). The assay can be described thus: Inhibition of human CAMK2b assessed as enzyme activity at 1 uM using KKALRRQETVDAL as substrate preincubated for 20 mins followed by [gamma-33P]-ATP addition and measured after 120 mins by radiometric Hot-SpotSM Kinase assay relative to control.
Sequence of Calcium/calmodulin-dependent protein kinase type II subunit beta (Homo sapiens) (Q13554 whole entry): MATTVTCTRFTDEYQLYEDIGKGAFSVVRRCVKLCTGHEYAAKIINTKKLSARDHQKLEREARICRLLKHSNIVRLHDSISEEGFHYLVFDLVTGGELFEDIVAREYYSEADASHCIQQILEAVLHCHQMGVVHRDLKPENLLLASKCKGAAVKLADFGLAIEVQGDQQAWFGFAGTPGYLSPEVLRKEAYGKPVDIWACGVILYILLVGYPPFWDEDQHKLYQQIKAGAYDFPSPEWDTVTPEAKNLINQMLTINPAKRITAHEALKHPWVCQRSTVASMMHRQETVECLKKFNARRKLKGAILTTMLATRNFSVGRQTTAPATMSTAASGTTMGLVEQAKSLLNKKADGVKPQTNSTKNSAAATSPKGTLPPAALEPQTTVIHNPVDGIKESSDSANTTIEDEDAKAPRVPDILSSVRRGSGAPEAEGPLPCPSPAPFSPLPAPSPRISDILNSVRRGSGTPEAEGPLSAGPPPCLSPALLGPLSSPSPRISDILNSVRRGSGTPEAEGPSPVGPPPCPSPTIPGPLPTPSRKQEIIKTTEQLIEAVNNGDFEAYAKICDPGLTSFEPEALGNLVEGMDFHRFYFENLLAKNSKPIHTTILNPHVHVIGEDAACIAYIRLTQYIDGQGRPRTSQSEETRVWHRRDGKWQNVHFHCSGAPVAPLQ

Assay [3] deals with Cyclin-dependent kinase 2/cyclin E1 (Homo sapiens) (UniProt P24864+P24941). In words: Inhibition of human CDK2/cyclin E assessed as enzyme activity at 1 uM using RB Protein as substrate preincubated for 20 mins followed by [gamma-33P]-ATP addition and measured after 120 mins by radiometric Hot-SpotSM Kinase assay relative to control. The assay is classed as protein-complex assay.

Assay [4] concerns the target CDK4/Cyclin D3 (Homo sapiens) (UniProt P11802+P30281). In words: Inhibition of human CDK4/cyclin D3 assessed as enzyme activity at 1 uM using RB-CTF as substrate preincubated for 20 mins followed by [gamma-33P]-ATP addition and measured after 120 mins by radiometric Hot-SpotSM Kinase assay relative to control. The assay is classed as protein-complex assay.
Assay [5] concerns the target Cyclin-dependent kinase 5/CDK5 activator 1 (Homo sapiens) (UniProt Q00535+Q15078). In words: Inhibition of human CDK5/p35 assessed as enzyme activity at 1 uM using RB Protein as substrate preincubated for 20 mins followed by [gamma-33P]-ATP addition and measured after 120 mins by radiometric Hot-SpotSM Kinase assay relative to control. The assay is classed as protein-complex assay.

Assay [6] addresses T1, Dual specificity tyrosine-phosphorylation-regulated kinase 2 (Homo sapiens) (UniProt Q92630).
T1 sequence (whole entry): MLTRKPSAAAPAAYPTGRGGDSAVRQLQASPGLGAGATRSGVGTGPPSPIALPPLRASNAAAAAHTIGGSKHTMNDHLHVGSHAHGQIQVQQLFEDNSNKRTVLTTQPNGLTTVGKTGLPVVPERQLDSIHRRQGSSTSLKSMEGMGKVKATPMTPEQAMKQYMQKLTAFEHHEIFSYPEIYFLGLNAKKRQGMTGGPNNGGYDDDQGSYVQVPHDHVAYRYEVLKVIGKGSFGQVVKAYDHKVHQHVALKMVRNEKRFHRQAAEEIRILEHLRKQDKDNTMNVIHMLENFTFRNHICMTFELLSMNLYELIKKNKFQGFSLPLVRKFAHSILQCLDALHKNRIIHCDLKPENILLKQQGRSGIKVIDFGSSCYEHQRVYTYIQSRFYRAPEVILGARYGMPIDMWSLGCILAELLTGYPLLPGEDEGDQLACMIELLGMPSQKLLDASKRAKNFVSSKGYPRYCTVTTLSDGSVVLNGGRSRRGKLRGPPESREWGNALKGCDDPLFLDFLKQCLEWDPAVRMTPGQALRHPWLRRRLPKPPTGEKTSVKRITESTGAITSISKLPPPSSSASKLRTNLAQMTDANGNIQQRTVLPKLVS
The assay can be described thus: Inhibition of human DYRK2 assessed as enzyme activity at 1 uM using RRRFRPASPLRGPPK as substrate preincubated for 20 mins followed by [gamma-33P]-ATP addition and measured after 120 mins by radiometric Hot-SpotSM Kinase assay relative to control.

The target of assay [7] is Ephrin type-A receptor 4 (Homo sapiens) (UniProt P54764). The assay can be described thus: Inhibition of human EPHA4 assessed as enzyme activity at 1 uM using poly[Glu:Tyr] (4:1) as substrate preincubated for 20 mins followed by [gamma-33P]-ATP addition and measured after 120 mins by radiometric Hot-SpotSM Kinase assay relative to control.
Sequence of Ephrin type-A receptor 4 (Homo sapiens) (P54764 whole entry): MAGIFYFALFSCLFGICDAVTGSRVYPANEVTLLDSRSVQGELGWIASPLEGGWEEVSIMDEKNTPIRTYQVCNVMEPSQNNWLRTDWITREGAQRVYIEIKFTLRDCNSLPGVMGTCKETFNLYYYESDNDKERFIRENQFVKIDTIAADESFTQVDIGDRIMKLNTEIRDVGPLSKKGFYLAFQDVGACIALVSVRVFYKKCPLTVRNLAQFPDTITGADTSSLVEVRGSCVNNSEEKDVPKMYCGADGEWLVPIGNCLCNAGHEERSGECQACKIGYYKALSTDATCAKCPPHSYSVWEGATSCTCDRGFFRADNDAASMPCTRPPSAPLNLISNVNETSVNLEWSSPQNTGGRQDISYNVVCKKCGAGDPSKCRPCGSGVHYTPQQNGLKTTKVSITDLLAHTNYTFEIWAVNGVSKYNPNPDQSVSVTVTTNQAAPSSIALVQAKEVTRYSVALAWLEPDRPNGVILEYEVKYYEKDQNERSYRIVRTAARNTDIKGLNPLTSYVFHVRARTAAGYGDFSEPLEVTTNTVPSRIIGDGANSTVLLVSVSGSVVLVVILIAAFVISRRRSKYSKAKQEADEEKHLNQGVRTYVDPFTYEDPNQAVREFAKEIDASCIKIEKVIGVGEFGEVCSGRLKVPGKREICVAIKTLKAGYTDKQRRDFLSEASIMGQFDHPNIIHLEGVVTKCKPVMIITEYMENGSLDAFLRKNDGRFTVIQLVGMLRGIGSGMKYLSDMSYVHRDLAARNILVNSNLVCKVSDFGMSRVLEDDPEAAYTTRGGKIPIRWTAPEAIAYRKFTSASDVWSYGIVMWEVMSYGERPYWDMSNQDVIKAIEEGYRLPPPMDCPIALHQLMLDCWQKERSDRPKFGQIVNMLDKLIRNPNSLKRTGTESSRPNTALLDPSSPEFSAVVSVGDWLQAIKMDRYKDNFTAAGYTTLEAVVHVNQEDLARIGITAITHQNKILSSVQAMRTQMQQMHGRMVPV
The target of assay [8] is Tyrosine-protein kinase FRK (Homo sapiens) (UniProt P42685). The assay can be described thus: Inhibition of human FRK assessed as enzyme activity at 1 uM using poly[Glu:Tyr] (4:1) as substrate preincubated for 20 mins followed by [gamma-33P]-ATP addition and measured after 120 mins by radiometric Hot-SpotSM Kinase assay relative to control.
Sequence of Tyrosine-protein kinase FRK (Homo sapiens) (P42685 whole entry): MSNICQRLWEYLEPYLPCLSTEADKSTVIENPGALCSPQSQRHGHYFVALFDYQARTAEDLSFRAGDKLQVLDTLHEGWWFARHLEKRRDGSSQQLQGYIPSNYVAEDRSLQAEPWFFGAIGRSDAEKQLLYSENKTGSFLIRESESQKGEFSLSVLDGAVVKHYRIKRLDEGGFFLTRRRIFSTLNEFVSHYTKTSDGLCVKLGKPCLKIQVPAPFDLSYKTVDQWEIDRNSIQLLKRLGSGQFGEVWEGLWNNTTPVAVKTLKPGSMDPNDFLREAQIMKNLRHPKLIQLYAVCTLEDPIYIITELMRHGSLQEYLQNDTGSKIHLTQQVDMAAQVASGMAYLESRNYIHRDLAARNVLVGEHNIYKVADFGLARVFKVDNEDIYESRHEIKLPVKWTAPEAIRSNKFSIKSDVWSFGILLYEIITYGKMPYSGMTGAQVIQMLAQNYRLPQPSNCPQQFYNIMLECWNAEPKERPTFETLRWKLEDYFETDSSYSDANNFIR
The target of assay [9] is T2, Mitogen-activated protein kinase kinase kinase kinase 2 (Homo sapiens) (UniProt Q12851).
T2 sequence (whole entry): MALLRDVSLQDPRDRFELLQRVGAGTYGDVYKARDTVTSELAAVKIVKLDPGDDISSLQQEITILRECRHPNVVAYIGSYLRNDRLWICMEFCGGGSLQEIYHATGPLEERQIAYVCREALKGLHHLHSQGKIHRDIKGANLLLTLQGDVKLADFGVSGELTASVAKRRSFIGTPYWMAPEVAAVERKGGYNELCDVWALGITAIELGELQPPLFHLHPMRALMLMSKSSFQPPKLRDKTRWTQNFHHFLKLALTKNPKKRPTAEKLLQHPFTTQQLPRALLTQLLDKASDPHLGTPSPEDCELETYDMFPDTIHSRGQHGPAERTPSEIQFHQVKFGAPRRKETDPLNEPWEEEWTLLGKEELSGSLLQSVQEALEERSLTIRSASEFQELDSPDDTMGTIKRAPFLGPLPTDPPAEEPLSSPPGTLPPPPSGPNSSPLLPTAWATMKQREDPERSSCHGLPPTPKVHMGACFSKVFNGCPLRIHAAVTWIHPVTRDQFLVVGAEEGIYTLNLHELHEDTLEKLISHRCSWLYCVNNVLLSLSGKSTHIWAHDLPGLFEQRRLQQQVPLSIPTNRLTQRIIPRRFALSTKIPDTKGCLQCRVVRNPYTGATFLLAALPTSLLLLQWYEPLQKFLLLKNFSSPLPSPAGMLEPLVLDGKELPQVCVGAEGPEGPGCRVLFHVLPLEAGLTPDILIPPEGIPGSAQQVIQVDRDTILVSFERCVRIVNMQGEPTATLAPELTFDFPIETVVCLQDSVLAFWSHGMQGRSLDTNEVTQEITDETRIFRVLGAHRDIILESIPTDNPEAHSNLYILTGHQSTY
The assay can be described thus: Inhibition of human GCK assessed as enzyme activity at 1 uM using myelin basic protein as substrate preincubated for 20 mins followed by [gamma-33P]-ATP addition and measured after 120 mins by radiometric Hot-SpotSM Kinase assay relative to control.

In assay [10] the target is Tyrosine-protein kinase Lyn (Homo sapiens) (UniProt P07948). The assay can be described thus: Inhibition of human LYN assessed as enzyme activity at 1 uM using poly[Glu:Tyr] (4:1) as substrate preincubated for 20 mins followed by [gamma-33P]-ATP addition and measured after 120 mins by radiometric Hot-SpotSM Kinase assay relative to control.
Sequence of Tyrosine-protein kinase Lyn (Homo sapiens) (P07948 2-512 limits assumed): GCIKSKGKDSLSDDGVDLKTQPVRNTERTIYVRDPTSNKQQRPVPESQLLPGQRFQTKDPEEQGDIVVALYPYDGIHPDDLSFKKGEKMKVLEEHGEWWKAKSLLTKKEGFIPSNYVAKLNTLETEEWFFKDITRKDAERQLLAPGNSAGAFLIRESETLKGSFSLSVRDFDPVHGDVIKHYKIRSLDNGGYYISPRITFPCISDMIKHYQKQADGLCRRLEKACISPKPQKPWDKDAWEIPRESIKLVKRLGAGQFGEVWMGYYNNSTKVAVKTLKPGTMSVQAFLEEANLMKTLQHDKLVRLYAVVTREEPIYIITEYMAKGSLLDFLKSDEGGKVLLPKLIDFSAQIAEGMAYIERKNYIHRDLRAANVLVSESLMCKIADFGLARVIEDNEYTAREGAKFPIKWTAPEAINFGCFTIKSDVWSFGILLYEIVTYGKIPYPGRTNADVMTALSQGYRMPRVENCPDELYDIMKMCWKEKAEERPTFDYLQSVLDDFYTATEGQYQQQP

Sequence of Calcium/calmodulin-dependent protein kinase type 1B (Homo sapiens) (Q6P2M8 whole entry): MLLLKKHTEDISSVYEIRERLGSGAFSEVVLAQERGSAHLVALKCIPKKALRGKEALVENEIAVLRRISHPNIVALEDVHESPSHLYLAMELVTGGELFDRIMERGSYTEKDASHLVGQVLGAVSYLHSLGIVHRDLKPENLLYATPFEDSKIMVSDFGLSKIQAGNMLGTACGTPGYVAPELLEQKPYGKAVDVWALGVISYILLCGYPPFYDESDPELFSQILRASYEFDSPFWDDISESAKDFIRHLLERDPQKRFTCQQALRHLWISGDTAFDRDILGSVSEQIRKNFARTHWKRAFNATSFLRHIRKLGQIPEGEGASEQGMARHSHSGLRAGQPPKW
Sequence of Cyclin-dependent kinase 5/CDK5 activator 1 (Homo sapiens) (Q00535 whole entry): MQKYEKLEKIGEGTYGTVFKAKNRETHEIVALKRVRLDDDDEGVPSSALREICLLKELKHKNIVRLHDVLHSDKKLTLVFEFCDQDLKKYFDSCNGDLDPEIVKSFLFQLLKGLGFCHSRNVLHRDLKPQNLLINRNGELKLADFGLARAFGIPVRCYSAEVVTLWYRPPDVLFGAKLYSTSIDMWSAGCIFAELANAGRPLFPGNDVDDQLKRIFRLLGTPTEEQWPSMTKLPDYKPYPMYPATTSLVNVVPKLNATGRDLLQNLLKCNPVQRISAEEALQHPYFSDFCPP
Sequence of Cyclin-dependent kinase 5/CDK5 activator 1 (Homo sapiens) (Q15078 99-307 partner limits assumed): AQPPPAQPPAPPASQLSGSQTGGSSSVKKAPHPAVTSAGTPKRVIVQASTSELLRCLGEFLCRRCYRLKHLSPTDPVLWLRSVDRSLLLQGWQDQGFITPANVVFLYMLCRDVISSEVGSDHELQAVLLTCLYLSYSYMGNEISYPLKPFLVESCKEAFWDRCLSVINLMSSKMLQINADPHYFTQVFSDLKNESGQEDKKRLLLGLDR

As for `C[C@H](Nc1ncnc2nc[nH]c12)c1cc2cccc(Cl)c2c(=O)n1-c1ccccc1`, the Activity in assay [1] was 102%; in [2] it was 95.8%; in assay [3], 95.6%; in [4], 97.5%; in assay [5], 97.1%; in assay [6], 99%. The Activity in assay [7] was 87.9%; in assay [8] it was 96.9%; in assay [9], 96.7%; in [10], 100%.
With `CC[C@H](Nc1ncnc2[nH]cnc12)c1nc2cccc(F)c2c(=O)n1-c1ccccc1`, the Activity was 103% in assay [1]; 96.2% in assay [2]; 96.2% in [3]; 99.3% in [4]; 97.4% in assay [5]; 99% in assay [6]. For the same molecule, the Activity in assay [7] was determined as 93.8%; in [8], 94%; in assay [9] it was 97%; in assay [10], 95%.
With `CC(C)Oc1ccc(-c2nn([C@@H](C)c3oc4ccc(F)cc4c(=O)c3-c3cccc(F)c3)c3ncnc(N)c23)cc1F` [UMBRALISIB], the Activity worked out at 100% in [1]; 92.3% in assay [2]; 99% in assay [3]; 98.8% in assay [4]; 91.7% in assay [5]; 99.2% in assay [6]. Further, the Activity in assay [7] was 85.9%; in assay [8], 95.3%; in assay [9], 98.6%; in [10], 96.4%.
